{"source": "PubChem BioAssay (NCI)", "system": "MDA-MB-468 breast", "experiment": "NCI-60 cell line screen, 48 h", "note": "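Where inhibition never reached the appropriate level, the endpoint shown equals the highest concentration tested. Otherwise, values were interpolated linearly from a five-concentration, 48-hour dose response in 96-well plates. At the GI50, growth is halved. At the TGI there is no net growth.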", "data": [{"compound": "C[C@@H](Nc1nc(Nc2ccc(F)c(Cl)c2)nc2ccccc12)C1CC1", "values": [{"measurement": "GI50", "result": 1.35, "unit": "µM"}, {"measurement": "TGI", "result": 3.74, "unit": "µM"}]}, {"compound": "CC(=O)c1nc2ccccc2n1CC(=O)c1cccc(Cl)c1", "values": [{"measurement": "GI50", "result": 0.328, "unit": "µM"}]}, {"compound": "CC(C)(C)c1ccc(NS(=O)(=O)c2ccc3nc(NC(=O)c4cnccn4)[nH]c3c2)cc1", "values": [{"measurement": "GI50", "result": 0.712, "unit": "µM"}, {"measurement": "TGI", "result": 4.27, "unit": "µM"}]}, {"compound": "CC(=O)c1cc(O)c2ccccc2c1O", "values": [{"measurement": "GI50", "result": 17.5, "unit": "µM"}, {"measurement": "TGI", "result": 33.4, "unit": "µM"}]}, {"compound": "CC(=C/c1ccccc1)/C=C1/NC(=S)N(/C=C2\\C(=O)Oc3ccccc3C2=O)C1=O", "values": [{"measurement": "GI50", "result": 26.9, "unit": "µM"}, {"measurement": "TGI", "result": "> 100", "unit": "µM"}]}, {"compound": "Cc1cc(C(=O)c2ccccc2)c(C)c2c1[nH]c1ccc(Cl)cc12", "values": [{"measurement": "GI50", "result": 0.0339, "unit": "µM"}, {"measurement": "TGI", "result": 1.12, "unit": "µM"}]}, {"compound": "CCCCCn1c(C)cc(/C=C\\c2ccc3cc(C)ccc3[n+]2C)c1C", "values": [{"measurement": "GI50", "result": 0.0133, "unit": "µM"}, {"measurement": "TGI", "result": 0.0523, "unit": "µM"}]}, {"compound": "COc1cc(-c2csc(NC(=O)Nc3cc(Cl)cc(Cl)c3)n2)cc(OC)c1OC", "values": [{"measurement": "GI50", "result": 1.67, "unit": "µM"}, {"measurement": "TGI", "result": 3.82, "unit": "µM"}]}, {"compound": "O=c1ccc2nc(-c3ccccn3)nn(-c3ccccc3)c-2c1", "values": [{"measurement": "GI50", "result": 1.44, "unit": "µM"}, {"measurement": "TGI", "result": 3.45, "unit": "µM"}]}, {"compound": "CC#Cc1nc(Nc2cc(C)[nH]n2)c2ccccc2n1", "values": [{"measurement": "GI50", "result": 2.47, "unit": "µM"}, {"measurement": "TGI", "result": 6.4, "unit": "µM"}]}, {"compound": "CN(C)CCCn1c(-c2nonc2N)nc2cnccc21", "values": [{"measurement": "TGI", "result": "> 25", "unit": "µM"}]}, {"compound": "O=C(NC(=S)Nc1cc(Cl)ccc1O)c1cccc(Br)c1", "values": [{"measurement": "GI50", "result": 5.25, "unit": "µM"}, {"measurement": "TGI", "result": "> 100", "unit": "µM"}]}, {"compound": "COc1c(B(O)O)cc(F)cc1-c1nc2ccc3[nH]ncc3c2c2c1CCCC2", "values": [{"measurement": "GI50", "result": 1.51, "unit": "µM"}, {"measurement": "TGI", "result": 4.21, "unit": "µM"}]}, {"compound": "Nc1c(C(=O)Nc2cccc(Cl)c2Cl)sc2nc3c(cc12)C(=O)CCC3", "values": [{"measurement": "GI50", "result": 0.786, "unit": "µM"}, {"measurement": "TGI", "result": "> 100", "unit": "µM"}]}, {"compound": "O=c1oc2c(C(F)(F)F)cccc2cc1-c1csc(Nc2ccc(OCCF)cc2)n1", "values": [{"measurement": "GI50", "result": 0.0401, "unit": "µM"}, {"measurement": "TGI", "result": 12.4, "unit": "µM"}]}, {"compound": "C=C1C(=O)O[C@H]2[C@H]1CC/C(COC(=O)NCc1ccc(Cn3c(=O)sn(-c4ccccc4)c3=O)cc1)=C\\CC[C@@]1(C)O[C@@H]21", "values": [{"measurement": "GI50", "result": 1.17, "unit": "µM"}, {"measurement": "TGI", "result": 2.85, "unit": "µM"}]}, {"compound": "CCN(CC)c1ccc(/C=C/C=C2\\NC(=O)NC2=O)cc1", "values": [{"measurement": "GI50", "result": 1.82, "unit": "µM"}, {"measurement": "TGI", "result": 7.26, "unit": "µM"}]}, {"compound": "Nc1ncc(-c2cccc(S(N)(=O)=O)c2)c2scc(-c3ccc(F)c(Cl)c3)c12", "values": [{"measurement": "GI50", "result": 5.13, "unit": "µM"}, {"measurement": "TGI", "result": 15.7, "unit": "µM"}]}, {"compound": "COc1ccc(Cn2cc3c(c2-c2cc(OC)c(OC)c(OC)c2)CCc2cnoc2-3)cc1", "values": [{"measurement": "GI50", "result": 0.171, "unit": "µM"}, {"measurement": "TGI", "result": 0.622, "unit": "µM"}]}, {"compound": "CCN(Cc1c(Cl)cccc1Cl)c1ccc(CO)c(Cl)c1", "values": [{"measurement": "TGI", "result": 0.033, "unit": "µM"}]}, {"compound": "Cc1c(Cl)cccc1NC(=O)c1sc2nc3c(cc2c1N)CCCCC3", "values": [{"measurement": "GI50", "result": 0.165, "unit": "µM"}, {"measurement": "TGI", "result": 29.6, "unit": "µM"}]}, {"compound": "Cc1cc(Nc2cc(N)ncn2)c(=O)n2c1C(=O)NC21CCCCC1", "values": [{"measurement": "GI50", "result": 94.9, "unit": "µM"}, {"measurement": "TGI", "result": "> 100", "unit": "µM"}]}, {"compound": "CC1(C)C(=O)/C(=C\\c2cccnc2)C[C@]2(C)[C@H]3CC[C@@H]4[C@@H](C(=O)/C=C/c5ccncc5)CC[C@@]4(C)[C@]3(C)CC[C@@H]12", "values": [{"measurement": "GI50", "result": 1.72, "unit": "µM"}, {"measurement": "TGI", "result": 3.67, "unit": "µM"}]}, {"compound": "CCCCCCCCCCCCCCCC1=NC(C)(C)CN1C(C)C", "values": [{"measurement": "GI50", "result": 1.32, "unit": "µM"}, {"measurement": "TGI", "result": 2.66, "unit": "µM"}]}, {"compound": "C[C@@H]1COCCN1c1cc(C2(O)C[C@H]3CC[C@@H](C2)O3)c2cnn(-c3ccn[nH]3)c2n1", "note": "(stereo not given in full)", "values": [{"measurement": "GI50", "result": 0.113, "unit": "µM"}, {"measurement": "TGI", "result": 0.545, "unit": "µM"}]}, {"compound": "COc1ccc(-c2nn(-c3ccc(NC(=O)Nc4ccc(Cl)c(C(F)(F)F)c4)cc3)cc2-c2ccncc2)cc1Cl", "values": [{"measurement": "GI50", "result": 1.18, "unit": "µM"}, {"measurement": "TGI", "result": 3.11, "unit": "µM"}]}, {"compound": "CNCCN=c1ccc2c3c1c(O)c1c(O)ccc(=O)c1c3[nH]n2CCNCCO", "values": [{"measurement": "GI50", "result": 0.0634, "unit": "µM"}, {"measurement": "TGI", "result": 0.435, "unit": "µM"}]}, {"compound": "O=C(CCCCC(=O)N/N=C\\c1ccccc1O)N/N=C\\c1ccccc1O", "values": [{"measurement": "GI50", "result": 2.63, "unit": "µM"}, {"measurement": "TGI", "result": "> 100", "unit": "µM"}]}, {"compound": "C=CC(COC(c1ccccc1)(c1ccccc1)c1ccccc1)N(CC)CC", "note": "(stereo not given)", "values": [{"measurement": "GI50", "result": 2.43, "unit": "µM"}, {"measurement": "TGI", "result": 6.75, "unit": "µM"}]}, {"compound": "Cc1cccc(Cc2cnc(NC(=O)CCc3ccc(C)o3)s2)c1", "values": [{"measurement": "GI50", "result": 0.112, "unit": "µM"}, {"measurement": "TGI", "result": 6.56, "unit": "µM"}]}, {"compound": "Cc1ccc(-c2cc(O)c(-c3ccc(C)cc3C)cc2O)c(C)c1", "values": [{"measurement": "GI50", "result": 1.75, "unit": "µM"}, {"measurement": "TGI", "result": 13.5, "unit": "µM"}]}, {"compound": "Oc1ccc(N=Nc2ccccn2)c(O)c1", "values": [{"measurement": "GI50", "result": 0.681, "unit": "µM"}, {"measurement": "TGI", "result": 4.65, "unit": "µM"}]}, {"compound": "O=C1OCC2=C1C(c1ccccc1)c1cc3c(cc1N2CCO)OCCO3", "note": "(stereo not given)", "values": [{"measurement": "GI50", "result": 0.138, "unit": "µM"}, {"measurement": "TGI", "result": 0.959, "unit": "µM"}]}, {"compound": "CC[C@H](C)C(=O)O[C@H]1C[C@H](O)C=C2C=C[C@H](C)[C@H](CC[C@@H](O)C[C@@H](O)CC(=O)O)[C@H]21", "values": [{"measurement": "GI50", "result": "> 100", "unit": "µM"}, {"measurement": "TGI", "result": "> 100", "unit": "µM"}]}, {"compound": "CCN(c1cc(C#CCN2CCOCC2)cc(C(=O)NCc2c(C)cc(C)[nH]c2=O)c1C)C1CCC(N(C)CCOC)CC1", "note": "(stereo not given)", "values": [{"measurement": "GI50", "result": "> 100", "unit": "µM"}, {"measurement": "TGI", "result": "> 100", "unit": "µM"}]}, {"compound": "Cn1cc(C2=C(N3CCOCC3)C(=O)NC2=O)c2ccccc21", "values": [{"measurement": "GI50", "result": "> 25", "unit": "µM"}, {"measurement": "TGI", "result": "> 25", "unit": "µM"}]}, {"compound": "COc1ccc2ccc3oc([N+](=O)[O-])cc3c2c1", "values": [{"measurement": "GI50", "result": 0.168, "unit": "µM"}, {"measurement": "TGI", "result": 0.381, "unit": "µM"}]}, {"compound": "N#CC1C=Cc2c(ccc3ccccc23)N1C(=O)c1ccccc1", "note": "(stereo not given)", "values": [{"measurement": "GI50", "result": 0.0432, "unit": "µM"}, {"measurement": "TGI", "result": 0.218, "unit": "µM"}]}, {"compound": "COc1ccc2nc3cc(Cl)ccc3c(NCCNc3c4ccc(Cl)cc4nc4ccc(OC)cc34)c2c1", "values": [{"measurement": "GI50", "result": 1.8, "unit": "µM"}, {"measurement": "TGI", "result": 3.78, "unit": "µM"}]}]}
